Experimental data taken from patent US20250381198A1 (Melt Pharmaceuticals, Inc., priority 2024, published 2025).

Experiments:
Type in all cases: in vivo, human
[1] = system: subjects undergoing cataract extraction with lens replacement (CELR); test: Phase 3: patient satisfaction (5-point Likert scale); parameters: key to Patient Satisfaction Scores, Min / Patient Satisfaction Scores, Max: 5=very satisfied; 4=satisfied; 3=neither satisfied nor dissatisfied; 2=dissatisfied; 1=very dissatisfied; conditions: ITT analysis set
Description: Patient satisfaction with the operative experience was measured at the Follow-Up visit using a 5-point Likert scale (5=very satisfied; 4=satisfied; 3=neither satisfied nor dissatisfied; 2=dissatisfied; 1=very dissatisfied). […] The means were compared using 2-sample t-tests and the Satterthwaite method. The proportion of satisfied responses (‘Very Satisfied’ or ‘Satisfied’, pooled) were tested using a Pearson's chi-square test; and a Fisher's exact test was used instead if any expected values were <5.

[2] = system: subjects undergoing cataract extraction with lens replacement (CELR); test: Phase 3: requirement for rescue sedation medication (first key secondary); conditions: for Requirement for rescue sedation medication - n: number of subjects
Description: Analysis of the first key secondary analysis of requirement for rescue sedation medication was performed. Requirement for rescue sedation medication was defined as a subject that received rescue sedation medication during the preoperative or intraoperative period. Group comparisons and statistics were analogous to those for TABLES 42-44.

[3] = system: subjects undergoing cataract extraction with lens replacement (CELR); test: Phase 3: rescue sedation medication use preoperatively and intraoperatively
Text: A secondary analysis of rescue sedation medication use (both preoperatively and intraoperatively) for the ITT analysis set is shown in TABLE 51.

[4] = system: subjects undergoing cataract extraction with lens replacement (CELR); test: Phase 3: preoperative procedural sedation responders (second key secondary); conditions: for Preoperative procedural sedation responder - n: number of subjects
[5] = system: subjects undergoing cataract extraction with lens replacement (CELR); test: Phase 3: Ramsay sedation scale (RSS) scores; conditions: ITT analysis set
Text: The RSS scores are summarized for: the baseline, just prior to the start of surgery, the minimum and maximum preoperative score, the minimum and maximum intraoperative score, the minimum and maximum postoperative score, and the maximum overall score.

[6] = ITT Analysis Set, number of subjects
[7] = Just prior to the start of surgery

Cc1ncc2n1-c1ccc(Cl)cc1C(c1ccccc1F)=NC2 [Midazolam, 8-chloro-6-(2-fluorophenyl)-1-methyl-4H-imidazo[1,5-a][1,4]benzodiazepine]
Patient Satisfaction Scores, Max ([1]; 5-point Likert scale): 5
Patient Satisfaction Scores, Mean ± SD ([1]; 5-point Likert scale): 4.8 ± 0.55
Patient Satisfaction Scores, Median ([1]; 5-point Likert scale): 5.0
Patient Satisfaction Scores, Min ([1]; 5-point Likert scale): 2
Patient Satisfaction Score 1 = Very Dissatisfied [1]: 0 n
Requirement for rescue sedation medication - % ([2]; All-Treated Analysis Set): 33.7%
Requirement for rescue sedation medication - n ([2]; All-Treated Analysis Set): 30
Requirement for rescue sedation medication - % ([2]; ITT Analysis Set): 33.7%
Requirement for rescue sedation medication - n ([2]; ITT Analysis Set): 30
Subjects who required rescue sedation medication ([2]; ITT analysis set, preoperative or intraoperative period): 33.7%
Requirement for rescue sedation medication - % ([2]; PP Analysis Set): 33.7%
Requirement for rescue sedation medication - n ([2]; PP Analysis Set): 30
Subjects who required rescue sedation medication ([2]; PP analysis set): 33.7%
Subjects who required rescue sedation medication ([2]; all-treated analysis set): 33.7%
Received intraoperative rescue sedation medication - % ([3]; ITT Analysis Set): 16.9%
Received preoperative rescue sedation medication - % ([3]; ITT Analysis Set): 18.0%
Received intraoperative rescue sedation medication - n [3, 6]: 15
Received preoperative rescue sedation medication - n [3, 6]: 16
Subjects who received intraoperative rescue sedation medication ([3]; ITT analysis set): 16.9%
Subjects who received preoperative rescue sedation medication ([3]; ITT analysis set): 18.0%
Preoperative procedural sedation responder - % ([4]; All-Treated Analysis Set): 73.0%
Preoperative procedural sedation responder - n ([4]; All-Treated Analysis Set): 65
Preoperative procedural sedation responder - % ([4]; ITT Analysis Set): 73.0%
Preoperative procedural sedation responder - n ([4]; ITT Analysis Set): 65
Preoperative procedural sedation responders ([4]; ITT analysis set): 73.0%
Preoperative procedural sedation responder - % ([4]; PP Analysis Set): 73.0%
Preoperative procedural sedation responder - n ([4]; PP Analysis Set): 65
Preoperative procedural sedation responders ([4]; PP analysis set): 73.0%
Preoperative procedural sedation responders ([4]; all-treated analysis set): 73.0%
Ramsay sedation scale score 1, number of subjects ([5]; Baseline): 89
Ramsay sedation scale score 1, percent of subjects (in parentheses) ([5]; Baseline): (100.0)
Ramsay sedation scale score 2-3, number of subjects ([5]; Baseline): 0
Ramsay sedation scale score 4, number of subjects ([5]; Baseline): 0
Ramsay sedation scale score 5+, number of subjects ([5]; Baseline): 0
Ramsay sedation scale: Prior rescue sedation medication given, number of subjects ([5]; Baseline): 0
Ramsay sedation scale score 1, number of subjects [5, 7]: 7
Ramsay sedation scale score 1, percent of subjects (in parentheses) [5, 7]: (7.9)
Ramsay sedation scale score 2-3, number of subjects [5, 7]: 65
Ramsay sedation scale score 2-3, percent of subjects (in parentheses) [5, 7]: (73.0)
Ramsay sedation scale score 4, number of subjects [5, 7]: 0
Ramsay sedation scale score 5+, number of subjects [5, 7]: 0
Ramsay sedation scale: Prior rescue sedation medication given, number of subjects [5, 7]: 17
Ramsay sedation scale: Prior rescue sedation medication given, percent of subjects (in parentheses) [5, 7]: (19.1)
Ramsay sedation scale score 1, number of subjects ([5]; Maximum intraoperative score): 4
Ramsay sedation scale score 1, percent of subjects (in parentheses) ([5]; Maximum intraoperative score): (4.5)
Ramsay sedation scale score 2-3, number of subjects ([5]; Maximum intraoperative score): 60
Ramsay sedation scale score 2-3, percent of subjects (in parentheses) ([5]; Maximum intraoperative score): (67.4)
Ramsay sedation scale score 4, number of subjects ([5]; Maximum intraoperative score): 0
Ramsay sedation scale score 5+, number of subjects ([5]; Maximum intraoperative score): 0
Ramsay sedation scale: Prior rescue sedation medication given, number of subjects ([5]; Maximum intraoperative score): 25
Ramsay sedation scale: Prior rescue sedation medication given, percent of subjects (in parentheses) ([5]; Maximum intraoperative score): (28.1)
Ramsay sedation scale score 1, number of subjects ([5]; Maximum postoperative score): 45
Ramsay sedation scale score 1, percent of subjects (in parentheses) ([5]; Maximum postoperative score): (50.6)
Ramsay sedation scale score 2-3, number of subjects ([5]; Maximum postoperative score): 14
Ramsay sedation scale score 2-3, percent of subjects (in parentheses) ([5]; Maximum postoperative score): (15.7)
Ramsay sedation scale score 4, number of subjects ([5]; Maximum postoperative score): 0
Ramsay sedation scale score 5+, number of subjects ([5]; Maximum postoperative score): 0
Ramsay sedation scale: Prior rescue sedation medication given, number of subjects ([5]; Maximum postoperative score): 29
Ramsay sedation scale: Prior rescue sedation medication given, percent of subjects (in parentheses) ([5]; Maximum postoperative score): (32.6)
Ramsay sedation scale score 1, number of subjects ([5]; Maximum preoperative score): 22
Ramsay sedation scale score 1, percent of subjects (in parentheses) ([5]; Maximum preoperative score): (24.7)
Ramsay sedation scale score 2-3, number of subjects ([5]; Maximum preoperative score): 67
Ramsay sedation scale score 2-3, percent of subjects (in parentheses) ([5]; Maximum preoperative score): (75.3)
Ramsay sedation scale score 4, number of subjects ([5]; Maximum preoperative score): 0
Ramsay sedation scale score 5+, number of subjects ([5]; Maximum preoperative score): 0
Ramsay sedation scale: Prior rescue sedation medication given, number of subjects ([5]; Maximum preoperative score): 0
Ramsay sedation scale score 1, number of subjects ([5]; Maximum score overall): 22
Ramsay sedation scale score 1, percent of subjects (in parentheses) ([5]; Maximum score overall): (24.7)
Ramsay sedation scale score 2-3, number of subjects ([5]; Maximum score overall): 67
Ramsay sedation scale score 2-3, percent of subjects (in parentheses) ([5]; Maximum score overall): (75.3)
Ramsay sedation scale score 4, number of subjects ([5]; Maximum score overall): 0
Ramsay sedation scale score 5+, number of subjects ([5]; Maximum score overall): 0
Ramsay sedation scale: Prior rescue sedation medication given, number of subjects ([5]; Maximum score overall): 0
Ramsay sedation scale score 1, number of subjects ([5]; Minimum intraoperative score): 4
Ramsay sedation scale score 1, percent of subjects (in parentheses) ([5]; Minimum intraoperative score): (4.5)
Ramsay sedation scale score 2-3, number of subjects ([5]; Minimum intraoperative score): 60
Ramsay sedation scale score 2-3, percent of subjects (in parentheses) ([5]; Minimum intraoperative score): (67.4)
Ramsay sedation scale score 4, number of subjects ([5]; Minimum intraoperative score): 0
Ramsay sedation scale score 5+, number of subjects ([5]; Minimum intraoperative score): 0
Ramsay sedation scale: Prior rescue sedation medication given, number of subjects ([5]; Minimum intraoperative score): 25
Ramsay sedation scale: Prior rescue sedation medication given, percent of subjects (in parentheses) ([5]; Minimum intraoperative score): (28.1)
Ramsay sedation scale score 1, number of subjects ([5]; Minimum postoperative score): 49
Ramsay sedation scale score 1, percent of subjects (in parentheses) ([5]; Minimum postoperative score): (55.1)
Ramsay sedation scale score 2-3, number of subjects ([5]; Minimum postoperative score): 10
Ramsay sedation scale score 2-3, percent of subjects (in parentheses) ([5]; Minimum postoperative score): (11.2)
Ramsay sedation scale score 4, number of subjects ([5]; Minimum postoperative score): 0
Ramsay sedation scale score 5+, number of subjects ([5]; Minimum postoperative score): 0
Ramsay sedation scale: Prior rescue sedation medication given, number of subjects ([5]; Minimum postoperative score): 29
Ramsay sedation scale: Prior rescue sedation medication given, percent of subjects (in parentheses) ([5]; Minimum postoperative score): (32.6)
